Measurements taken from patent US9814758B2, “Inhibitors of apoptosis and uses thereof” (CENTRE NATIONAL DE LA RECHERCHE SCIENTIFIQUE-CNRS, priority 2010, dated 2017).
Values belong to the substance of their own block, whether it stands above or below them. Non-standard residues stand in square brackets, D forms with d. No end group written: not given here. Ahx = NCCCCCC(=O)O; βAla = NCCC(=O)O

Tests used:
NG108-15 cells = test: STS-induced DNA fragmentation (Cell Death detection ELISA PLUS) in NG108-15 cells; assay type: cell-based; conditions: murine NG118-15 (model for neuronal cells); FIG. 5D
Experimental: (§1) FIG. 5: In vitro evaluation of the anti-apoptotic activity of CPPs and CPP-conjugates. Workflow and quantitation of DNA fragmentation in (A) C2C12 cells, (B) primary cardiomyocytes, (C) H9c2 cells and (D) NG108-15 cells. Data were normalized to 100% STS. Data shown are the means±SEM, with n≧5. Cells were seeded in 24-well plates and grown overnight. The next day, the cells were incubated with STS alone or with STS+1 μM peptide (in OPTI-MEM) (OPTI-MEM® is a modification of Eagle's Minimum Essential Media, buffered with HEPES and sodium bicarbonate, and supplemented with hypoxanthine, thymidine, sodium pyruvate, L-glutamine, trace elements, and growth factors) (STS concentration and incubation time for each cells are given in the figure). […] Following the regeneration phase, the cells were lyzed and DNA fragmentation was detected according to manufacturer's instructions (Cell Death detection ELISA^PLUS kit—Roche Diagnostics).
(§2) Thereafter, the capacity of these peptides to inhibit apoptosis induced by staurosporine was evaluated. Apoptosis was determined using the Cell Death detection ELISA^PLUS kit (Roche) measuring the DNA fragmentation.
(§3) The anti-apoptotic effects of the peptides were also analyzed in murine NG118-15 (model for neuronal cells) (FIG. 5D), in murine C2C12 (model for muscle cells) (FIG. 5A) and in rat H9c2 (model for cardiac cells) (FIG. 5C). […]

[1] = biological target: T1, intracellular region of the Fas receptor (Homo sapiens, UniProt P25445); test: Binding affinities (Kd) by surface plasmon resonance (Biacore); conditions: mean of three independent experiments, read-out: Kd ± SD
T1 sequence (P25445 191-335 limits assumed): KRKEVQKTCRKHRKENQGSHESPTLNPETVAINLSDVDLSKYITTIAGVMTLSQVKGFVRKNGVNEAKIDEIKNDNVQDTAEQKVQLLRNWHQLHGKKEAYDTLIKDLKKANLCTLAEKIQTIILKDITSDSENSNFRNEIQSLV
Description: Additionally, the potential interaction of the fragments with the intracellular region of the Fas receptor was cross-validated by measuring the binding affinities (Kd) using the surface plasmon resonance (SPR) technique (Biacore Life Science, Sweden).

H9c2 cells = test: STS-induced DNA fragmentation (Cell Death detection ELISA PLUS) in H9c2 cells; assay type: cell-based, rat; conditions: H9c2; against STS
Experimental: FIG. 5: In vitro evaluation of the anti-apoptotic activity of CPPs and CPP-conjugates. Workflow and quantitation of DNA fragmentation in (A) C2C12 cells, (B) primary cardiomyocytes, (C) H9c2 cells and (D) NG108-15 cells. Data were normalized to 100% STS. Data shown are the means±SEM, with n≧5. Cells were seeded in 24-well plates and grown overnight. The next day, the cells were incubated with STS alone or with STS+1 μM peptide (in OPTI-MEM) (OPTI-MEM® is a modification of Eagle's Minimum Essential Media, buffered with HEPES and sodium bicarbonate, and supplemented with hypoxanthine, thymidine, sodium pyruvate, L-glutamine, trace elements, and growth factors) (STS concentration and incubation time for each cells are given in the figure). Thereafter, solutions were removed, replaced by complete medium and further incubated for 40 h. Following the regeneration phase, the cells were lyzed and DNA fragmentation was detected according to manufacturer's instructions (Cell Death detection ELISA^PLUS kit—Roche Diagnostics). […]
as §2
The anti-apoptotic effects of the peptides were also analyzed in murine NG118-15 (model for neuronal cells) (FIG. 5D), in murine C2C12 (model for muscle cells) (FIG. 5A) and in rat H9c2 (model for cardiac cells) (FIG. 5C). The highest reduction in DNA fragmentation were observed using Bpep-DAXXp in NG118-15 (66% reduction) using Tat-DAXXp in C2C12 (24% reduction) and Pip2b-DAXXp in H9c2 (31% reduction).

primary cardiomyocytes = test: STS-induced DNA fragmentation (Cell Death detection ELISA PLUS) in primary cardiomyocytes; assay type: cell-based, mouse; conditions: for anti-apoptotic effect compared with Tat-DAXXp: primary cardiomyocytes, against STS; for decrease in apoptosis: cardiomyocytes, STS + 1 μM peptide, FIG. 9
Experimental: FIG. 5: In vitro evaluation of the anti-apoptotic activity of CPPs and CPP-conjugates. Workflow and quantitation of DNA fragmentation in (A) C2C12 cells, (B) primary cardiomyocytes, (C) H9c2 cells and (D) NG108-15 cells. Data were normalized to 100% STS. Data shown are the means±SEM, with n≧5. Cells were seeded in 24-well plates and grown overnight. The next day, the cells were incubated with STS alone or with STS+1 μM peptide (in OPTI-MEM) (OPTI-MEM® is a modification of Eagle's Minimum Essential Media, buffered with HEPES and sodium bicarbonate, and supplemented with hypoxanthine, thymidine, sodium pyruvate, L-glutamine, trace elements, and growth factors) (STS concentration and incubation time for each cells are given in the figure). Thereafter, solutions were removed, replaced by complete medium and further incubated for 40 h. Following the regeneration phase, the cells were lyzed and DNA fragmentation was detected according to manufacturer's instructions (Cell Death detection ELISA^PLUS kit—Roche Diagnostics).
FIG. 6: Anti-apoptotic activity of variants of the Tat-DAXXp sequence on primary cardiomyocytes. As described in the caption of FIG. 5, the different analogues of the DAXXp sequence (see Table 2) were assessed for anti-apoptotic properties against STS (Cell Death detection ELISA^PLUS kit—Roche Diagnostics) (A-B). None of the analogues were able to protect the primary cardiomyocytes—a fact which confirms that the 16mer DAXXp has the optimal length and sequence for highest cardioprotective effect.
FIG. 7: Comparison of the murine/rat DAXXp with the human DAXXp sequence in terms of anti-apoptotic activity on C2C12 cells, primary cardiomyocytes, and H9c2. The murine DAXXp sequence conjugated to Tat (Tat-mDAXXp—SEQ ID NO: 61) which is identical to the rat DAXXp sequence (see FIG. 1B), was compared to the human construct (Tat-DAXXp) in terms of anti-apoptotic properties against STS (Cell Death detection ELISA^PLUS kit—Roche Diagnostics). The C2C12 cells and the primary cardiomyocytes used were from mice and the H9c2 cells from rat.
FIG. 9: Comparison of FADDp constructs with Tat-DAXXp in terms of anti-apoptotic activity in primary cardiomyocytes and in H9c2 cells. Quantification of DNA normalized to 100% STS. Data shown are the means±SEM, with n≧5. Cells were seeded in 24-well plates and grown overnight. The next day, the cells were incubated with STS alone or with STS+1 μM peptide (in OPTI-MEM®) (OPTI-MEM® is a modification of Eagle's Minimum Essential Media, buffered with HEPES and sodium bicarbonate, and supplemented with hypoxanthine, thymidine, sodium pyruvate, L-glutamine, trace elements, and growth factors) (STS concentration is given in the figure and incubation time is given in FIG. 5). Thereafter, solutions were removed, replaced by complete medium and further incubated for 40 hours. Following the regeneration phase, the cells were lyzed and DNA fragmentation was detected according to manufacturer's instructions (Cell Death detection ELISA^PLUS kit—Roche Diagnostics).
FIG. 10: Comparison of Tat-DAXXp and Tat-FADDp15 alone and in combination in primary cardiomyocytes (A) and in H9c2 cells (B).
as §2
In most publications, anti-apoptotic peptides currently available in the art are administrated 3-4 hours prior to apoptosis induction, which is poorly relevant to a clinical application. For that reason, the protocol used in the present study included administration of the peptides together with the staurosporine. […] This was not observed with CPP alone or with the Tat-scrDAXXp or Tat-ncDAXXp negative controls. […] To better compare the results, the DNA fragmentation (described by the enrichment factor) is related to the staurosporine-treated cells (=100%).

C2C12 cells = test: STS-induced DNA fragmentation (Cell Death detection ELISA PLUS) in C2C12 cells; assay type: cell-based, mouse; conditions: C2C12; against STS
Experimental: as §1, with “Diagnostics). […]” for “Diagnostics).”
as §2, §3

Substance: RXRRBRRXRRBRXB-KKSRKEKKQTGSGPLG-NH2 (R[Ahx]RR[βAla]RR[Ahx]RR[βAla]R[Ahx][βAla]KKSRKEKKQTGSGPLG-NH2; N-terminus assumed; SMILES CC(C)C[C@H](NC(=O)[C@@H]1CCCN1C(=O)CNC(=O)[C@H](CO)NC(=O)CNC(=O)[C@@H](NC(=O)[C@H](CCC(N)=O)NC(=O)[C@H](CCCCN)NC(=O)[C@H](CCCCN)NC(=O)[C@H](CCC(=O)O)NC(=O)[C@H](CCCCN)NC(=O)[C@H](CCCNC(=N)N)NC(=O)[C@H](CO)NC(=O)[C@H](CCCCN)NC(=O)[C@H](CCCCN)NC(=O)CCNC(=O)CCCCCNC(=O)[C@H](CCCNC(=N)N)NC(=O)CCNC(=O)[C@H](CCCNC(=N)N)NC(=O)[C@H](CCCNC(=N)N)NC(=O)CCCCCNC(=O)[C@H](CCCNC(=N)N)NC(=O)[C@H](CCCNC(=N)N)NC(=O)CCNC(=O)[C@H](CCCNC(=N)N)NC(=O)[C@H](CCCNC(=N)N)NC(=O)CCCCCNC(=O)[C@@H](N)CCCNC(=N)N)[C@@H](C)O)C(=O)NCC(N)=O) [Bpep-DAXXp]
- reduction in DNA fragmentation (NG108-15 cells): 66%

- Kd [1]: ≥ 6 mM
Substance: KKGRKQSGESLGTPKK-NH2 [scrDAXXp, KKGRKQSGESLGTPKK -NH2]

Substance: GRKKRRQRRRPPQ-KRFRKEKKQLGSGLLG-NH2 (GRKKRRQRRRPPQKRFRKEKKQLGSGLLG-NH2) [Tat-mDAXXp]
- anti-apoptotic effect compared with Tat-DAXXp (H9c2 cells): increase in anti-apoptotic effect
- anti-apoptotic effect compared with Tat-DAXXp (primary cardiomyocytes): increase in anti-apoptotic effect
- anti-apoptotic effect compared with Tat-DAXXp (C2C12 cells): increase in anti-apoptotic effect

Substance: GRKKRRQRRRPPQ-KRKLERVQS-NH2 (GRKKRRQRRRPPQKRKLERVQS-NH2) [Tat-FADDp]
- anti-apoptotic effect compared with Tat-DAXXp (H9c2 cells): less effective than Tat-DAXXp
- decrease in apoptosis (primary cardiomyocytes): 35%
- anti-apoptotic effect compared with Tat-DAXXp (primary cardiomyocytes): less effective than Tat-DAXXp

Substance: GRKKRRQRRRPPQ-VGKRKLERVQSGLDL-NH2 (GRKKRRQRRRPPQVGKRKLERVQSGLDL-NH2) [Tat-FADDp15]
- anti-apoptotic effect compared with Tat-DAXXp (H9c2 cells): equal
- decrease in apoptosis (primary cardiomyocytes): 57%
- anti-apoptotic effect compared with Tat-DAXXp (primary cardiomyocytes): increased anti-apoptotic effect
